{
  "source": "ChEMBL document CHEMBL5120796",
  "about": "“A novel photocaged B-RafV600E inhibitor toward precise melanoma treatment” (Bioorg Med Chem Lett, 2022)",
  "key": {"A-375 [1]": {"test_system": "A-375", "assay": "Antiproliferative activity against human A-375 cells harboring B-RAF V600E mutant assessed as cell growth inhibition irradiated with sun light for 0.5 mins measured after 72 hrs by CCK-8 analysis", "type": "functional, cell-based", "settings": "A-375, light or radiation study"}, "SK-MEL-2 [2]": {"test_system": "SK-MEL-2", "assay": "Antiproliferative activity against human SK-MEL-2 cells harboring wild type B-RAF assessed as cell growth inhibition irradiated with 365 nm UV light for 5 mins measured after 72 hrs by CCK-8 analysis", "type": "functional, cell-based", "settings": "SK-MEL-2, light or radiation study"}, "[3]": {"biological_target": "Serine/threonine-protein kinase B-raf (Homo sapiens, UniProt P15056, V600E)", "sequence (P15056 2-766 V600E limits assumed)": "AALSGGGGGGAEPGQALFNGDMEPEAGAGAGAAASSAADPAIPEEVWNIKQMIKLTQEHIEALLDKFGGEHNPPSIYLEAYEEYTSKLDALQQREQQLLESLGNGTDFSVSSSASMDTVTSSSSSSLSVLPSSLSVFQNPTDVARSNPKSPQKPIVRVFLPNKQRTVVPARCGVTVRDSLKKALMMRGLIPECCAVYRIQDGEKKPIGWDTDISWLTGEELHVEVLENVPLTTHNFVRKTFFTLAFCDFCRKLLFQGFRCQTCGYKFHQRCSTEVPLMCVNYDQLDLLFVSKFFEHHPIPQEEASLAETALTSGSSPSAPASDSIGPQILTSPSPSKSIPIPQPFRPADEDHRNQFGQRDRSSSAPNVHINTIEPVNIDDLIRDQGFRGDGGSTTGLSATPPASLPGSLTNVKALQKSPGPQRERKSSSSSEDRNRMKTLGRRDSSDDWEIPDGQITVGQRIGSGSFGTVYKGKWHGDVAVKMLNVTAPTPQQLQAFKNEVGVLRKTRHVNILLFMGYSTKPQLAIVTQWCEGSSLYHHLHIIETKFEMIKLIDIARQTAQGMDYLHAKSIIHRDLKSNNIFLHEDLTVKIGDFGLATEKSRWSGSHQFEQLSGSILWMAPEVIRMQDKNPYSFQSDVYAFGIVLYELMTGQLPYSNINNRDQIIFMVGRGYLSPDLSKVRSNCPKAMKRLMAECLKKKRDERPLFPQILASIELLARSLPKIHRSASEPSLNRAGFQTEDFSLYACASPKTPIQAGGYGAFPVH", "assay": "Inhibition of GST-tagged recombinant human B-RAF V600E mutant expressed in baculovirus expression system incubated for 1 hr in presence of ATP by FRET-based Z'-Lyte analysis"}, "[4]": {"assay": "Retention time of compound in PBS buffer by UPLC analysis", "type": "physicochemical", "settings": "dose 5.85 µg/ml"}, "[5]": {"assay": "Photorelease ability in PBS buffer assessed as N-(2,4-difluoro-3-((3-(4-fluorophenyl)-1H-pyrazolo[3,4-b]pyridin-5-yl)ethynyl)phenyl)pyridine-3-sulfonamide formation by measuring half life at 5.85 ug/ml irradiated with 365 nm UV light by UPLC analysis", "type": "functional", "settings": "dose 5.85 µg/ml"}, "[6]": {"assay": "Photorelease ability in PBS buffer assessed as N-(2,4-difluoro-3-((3-(4-fluorophenyl)-1H-pyrazolo[3,4-b]pyridin-5-yl)ethynyl)phenyl)pyridine-3-sulfonamide formation by measuring half life at 5.85 ug/ml irradiated with sun light by UPLC analysis", "type": "functional", "settings": "dose 5.85 µg/ml"}, "A-375 [7]": {"test_system": "A-375", "assay": "Antiproliferative activity against human A-375 cells harboring B-RAF V600E mutant assessed as cell growth inhibition measured after 72 hrs by CCK-8 analysis", "type": "functional, cell-based", "settings": "A-375, 72 h"}, "A-375 [8]": {"test_system": "A-375", "assay": "Antiproliferative activity against human A-375 cells harboring B-RAF V600E mutant assessed as cell growth inhibition irradiated with 365 nm UV light for 0.5 mins measured after 72 hrs by CCK-8 analysis", "type": "functional, cell-based", "settings": "A-375, light or radiation study"}, "A-375 [9]": {"test_system": "A-375", "assay": "Antiproliferative activity against human A-375 cells harboring B-RAF V600E mutant assessed as cell growth inhibition irradiated with 365 nm UV light for 2.5 mins measured after 72 hrs by CCK-8 analysis", "type": "functional, cell-based", "settings": "A-375, light or radiation study"}, "A-375 [10]": {"test_system": "A-375", "assay": "Antiproliferative activity against human A-375 cells harboring B-RAF V600E mutant assessed as cell growth inhibition irradiated with 365 nm UV light for 5 mins measured after 72 hrs by CCK-8 analysis", "type": "functional, cell-based", "settings": "A-375, light or radiation study"}, "A-375 [11]": {"test_system": "A-375", "assay": "Antiproliferative activity against human A-375 cells harboring B-RAF V600E mutant assessed as cell growth inhibition irradiated with 365 nm UV light for 10 mins measured after 72 hrs by CCK-8 analysis", "type": "functional, cell-based", "settings": "A-375, light or radiation study"}, "A-375 [12]": {"test_system": "A-375", "assay": "Antiproliferative activity against human A-375 cells harboring B-RAF V600E mutant assessed as cell growth inhibition irradiated with sun light for 2.5 mins measured after 72 hrs by CCK-8 analysis", "type": "functional, cell-based", "settings": "A-375, light or radiation study"}, "A-375 [13]": {"test_system": "A-375", "assay": "Antiproliferative activity against human A-375 cells harboring B-RAF V600E mutant assessed as cell growth inhibition irradiated with sun light for 5 mins measured after 72 hrs by CCK-8 analysis", "type": "functional, cell-based", "settings": "A-375, light or radiation study"}, "A-375 [14]": {"test_system": "A-375", "assay": "Antiproliferative activity against human A-375 cells harboring B-RAF V600E mutant assessed as cell growth inhibition irradiated with sun light for 10 mins measured after 72 hrs by CCK-8 analysis", "type": "functional, cell-based", "settings": "A-375, light or radiation study"}, "SK-MEL-1 [15]": {"test_system": "SK-MEL-1", "assay": "Antiproliferative activity against human SK-MEL-1 cells harboring […] B-RAF assessed as cell growth inhibition measured after 72 hrs by CCK-8 analysis", "type": "functional, cell-based", "settings": "SK-MEL-1, 72 h"}, "SK-MEL-1 [16]": {"test_system": "SK-MEL-1", "assay": "Antiproliferative activity against human SK-MEL-1 cells harboring […] B-RAF assessed as cell growth inhibition irradiated with 365 nm UV light for 5 mins measured after 72 hrs by CCK-8 analysis", "type": "functional, cell-based", "settings": "SK-MEL-1, light or radiation study"}, "SK-MEL-2 [17]": {"test_system": "SK-MEL-2", "assay": "Antiproliferative activity against human SK-MEL-2 cells harboring wild type B-RAF assessed as cell growth inhibition measured after 72 hrs by CCK-8 analysis", "type": "functional, cell-based", "settings": "SK-MEL-2, 72 h"}, "A-375 [18]": {"test_system": "A-375", "assay": "Inhibition of ERK phosphorylation in human A-375 cells at 0.1 to 10 uM incubated for 2 hrs irradiated with 365 nm UV light for 5 mins by Western blot analysis", "type": "cell-based", "settings": "dose 0.1-10 µM"}, "A-375 [19]": {"test_system": "A-375", "assay": "Inhibition of ERK phosphorylation in human A-375 cells at 0.1 to 10 uM incubated for 2 hrs by Western blot analysis", "type": "cell-based", "settings": "dose 0.1-10 µM"}},
  "note": "Activity calls are given as the source filed them. The calls are words filed in the database; no cut-off is given here.",
  "data": [
    {"smiles": "COc1cc(CN(c2ccc(F)c(C#Cc3cnc4[nH]nc(-c5ccc(F)cc5)c4c3)c2F)S(=O)(=O)c2cccnc2)c([N+](=O)[O-])cc1OC", "values": [
      {"measurement": "IC50", "setting": "A-375 [1]", "result": 850, "unit": "nM"},
      {"measurement": "IC50", "setting": "SK-MEL-2 [2]", "result": "> 10000", "unit": "nM"},
      {"measurement": "IC50", "setting": "[3]", "result": "> 10000", "unit": "nM"},
      {"measurement": "Retention_time", "setting": "[4]", "result": 5.9, "unit": "min"},
      {"measurement": "T1/2", "setting": "[5]", "result": 2, "unit": "min"},
      {"measurement": "T1/2", "setting": "[6]", "result": 2.8, "unit": "min"},
      {"measurement": "IC50", "setting": "A-375 [7]", "result": "> 10000", "unit": "nM"},
      {"measurement": "IC50", "setting": "A-375 [8]", "result": 700, "unit": "nM"},
      {"measurement": "IC50", "setting": "A-375 [9]", "result": 370, "unit": "nM"},
      {"measurement": "IC50", "setting": "A-375 [10]", "result": 210, "unit": "nM"},
      {"measurement": "IC50", "setting": "A-375 [11]", "result": 240, "unit": "nM"},
      {"measurement": "IC50", "setting": "A-375 [12]", "result": 340, "unit": "nM"},
      {"measurement": "IC50", "setting": "A-375 [13]", "result": 280, "unit": "nM"},
      {"measurement": "IC50", "setting": "A-375 [14]", "result": 290, "unit": "nM"},
      {"measurement": "IC50", "setting": "SK-MEL-1 [15]", "result": "> 10000", "unit": "nM"},
      {"measurement": "IC50", "setting": "SK-MEL-1 [16]", "result": 840, "unit": "nM"},
      {"measurement": "IC50", "setting": "SK-MEL-2 [17]", "result": "> 10000", "unit": "nM"},
      {"measurement": "inhibition", "setting": "A-375 [18]", "result": "Active"}
    ]},
    {"smiles": "O=S(=O)(Nc1ccc(F)c(C#Cc2cnc3[nH]nc(-c4ccc(F)cc4)c3c2)c1F)c1cccnc1", "values": [
      {"measurement": "IC50", "setting": "A-375 [1]", "result": 160, "unit": "nM"},
      {"measurement": "IC50", "setting": "SK-MEL-2 [2]", "result": "> 10000", "unit": "nM"},
      {"measurement": "IC50", "setting": "[3]", "result": 21, "unit": "nM"},
      {"measurement": "Retention_time", "setting": "[4]", "result": 1.7, "unit": "min"},
      {"measurement": "IC50", "setting": "A-375 [7]", "result": 210, "unit": "nM"},
      {"measurement": "IC50", "setting": "A-375 [8]", "result": 190, "unit": "nM"},
      {"measurement": "IC50", "setting": "A-375 [9]", "result": 170, "unit": "nM"},
      {"measurement": "IC50", "setting": "A-375 [10]", "result": 180, "unit": "nM"},
      {"measurement": "IC50", "setting": "A-375 [11]", "result": 220, "unit": "nM"},
      {"measurement": "IC50", "setting": "A-375 [12]", "result": 160, "unit": "nM"},
      {"measurement": "IC50", "setting": "A-375 [13]", "result": 170, "unit": "nM"},
      {"measurement": "IC50", "setting": "A-375 [14]", "result": 190, "unit": "nM"},
      {"measurement": "IC50", "setting": "SK-MEL-1 [15]", "result": 760, "unit": "nM"},
      {"measurement": "IC50", "setting": "SK-MEL-1 [16]", "result": 560, "unit": "nM"},
      {"measurement": "IC50", "setting": "SK-MEL-2 [17]", "result": "> 10000", "unit": "nM"},
      {"measurement": "inhibition", "setting": "A-375 [19]", "result": "Active"},
      {"measurement": "inhibition", "setting": "A-375 [18]", "result": "Active"}
    ]}
  ]
}
